This is an account of results in paper PMC3406030, “Structure of an MmyB-Like Regulator from C. aurantiacus, Member of a New Transcription Factor Family Linked to Antibiotic Metabolism in Actinomycetes” (PLoS ONE, 2012).

One experiment addresses T1, MltR (Caur_2278) (Chloroflexus aurantiacus, UniProt A9WGF5).
T1 construct: full length, 291 residues, SeMet derivative; N-terminal His tag cut by TEV leaving Gly0; expressed in E. coli; dimer in crystal, monomer by size exclusion
T1 sequence (A9WGF5 1-291): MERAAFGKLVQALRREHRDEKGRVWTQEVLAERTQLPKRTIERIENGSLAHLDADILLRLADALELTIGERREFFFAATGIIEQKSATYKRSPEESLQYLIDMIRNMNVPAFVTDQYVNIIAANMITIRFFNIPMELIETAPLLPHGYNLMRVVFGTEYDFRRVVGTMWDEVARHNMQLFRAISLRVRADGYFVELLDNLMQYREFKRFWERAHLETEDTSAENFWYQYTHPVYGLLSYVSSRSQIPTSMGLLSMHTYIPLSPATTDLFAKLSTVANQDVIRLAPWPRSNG
The experiment can be described thus: X-ray crystallography (SAD, […] Å). It is filed as binding. As to conditions: co-purified ligand, none added; identity tentative, modelled from electron density (related fatty acid, mixture or PEG fragment not excluded); PAS-like C-terminal domain; pH 9.1, 277 K.

The target of experiment [1] is MmyB-like transcription regulator MltR (Caur_2278) from Chloroflexus aurantiacus (Chloroflexus aurantiacus J-10-fl) (UniProt A9WGF5). The experiment can be described thus: crystal structure; SeMet MltR, tag removed, 11.1 mg/ml; 0.2M NaCl, 10.5% polyethylene glycol 8000, 0.1M CHES pH 9.1, 277 K; space group C2, three monomers (1.5 dimers) in the asymmetric unit; bound myristic acid.

As to `CCCCCCCCCCCCCC(=O)O` [MYR, myristic acid], at MltR (Caur_2278), the “X-ray crystallography (SAD, 2.3 Å)” value was “additional electron density in the putative ligand-binding site clearly indicated the presence of a fatty acid-type ligand”.

A word on the stoichiometry N: it is the number of molecules, sites or subunits per partner or assembly. The compound “MmyB-like transcription regulator MltR (Caur_2278) from Chloroflexus aurantiacus (from UniProt A9WGF5 1-291) (natural protein)” displayed a stoichiometry N in experiment [1] of 2.
